Source: patent publication US20230000813A1, “COMPOUND FOR THE TREATMENT OF BOVINE OR SWINE RESPIRATORY DISEASE” (Intervet Inc., priority 2016, published 2023)
≈ marks a conversion by molar mass, not a printed value.

Legend:
Test in all cases: MIC, broth-microdilution (CLSI VET01-A4)
Type in all cases: cell-based
[1] = test system: Pasteurella multocida PM 12080 (IV102277-0093, BRD field isolate); settings: Pasteurella multocida PM 12080; for MIC: read-out: MIC PM 12080
Outline: (§1)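 Visual no-turbidity endpoint over twofold compound dilutions in microdilution trays, interpreted according to CLSI VET01-S3.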

[2] = test system: Pasteurella multocida PM 6391 (ATCC 43137, reference strain); settings: Pasteurella multocida PM 6391; for MIC: read-out: MIC PM 6391
Outline: as §1

[3] = test system: Pasteurella multocida PM 6267 (P 2225 (L386), reference strain, mouse infection strain); settings: Pasteurella multocida PM 6267; for MIC: read-out: MIC PM 6267
Outline: as §1

[4] = test system: Mannheimia haemolytica MH 12587 (1071, BRD field isolate, macrolide-resistance: erm+, E+); settings: Mannheimia haemolytica MH 12587, macrolide-resistant
Outline: as §1

[5] = test system: Mannheimia haemolytica MH 10720 (154, BRD field isolate); settings: Mannheimia haemolytica MH 10720; for MIC: read-out: MIC MH 10720
Outline: as §1

[6] = test system: Mannheimia haemolytica MH 6357 (M7/2, reference strain, cattle infection strain); settings: Mannheimia haemolytica MH 6357; read-out: MIC MH 6357
Outline: as §1

[7] = test system: Mannheimia haemolytica MH 6374 (ATCC 33396, reference strain); settings: Mannheimia haemolytica MH 6374; for MIC: read-out: MIC MH 6374
Outline: as §1

[8] = test system: Pasteurella multocida PM 10775 (080130003051, BRD field isolate); settings: Pasteurella multocida PM 10775
Outline: as §1

[9] = test system: Mannheimia haemolytica MH 13065 (XB0446-6003.9, BRD field isolate)
Outline: (§2)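 MIC read by eye as lowest compound concentration without visible growth (no turbidity), interpreted per CLSI VET01-S3. Doubling-dilution broth-microdilution trays, run according to CLSI VET01-A4.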

[10] = test system: Mannheimia haemolytica MH 13093 (XB0472-6014.1, BRD field isolate)
Outline: as §2

| SMILES | MIC PM 12080 [1] | MIC PM 6391 [2] | MIC PM 6267 [3] | MIC MH 12587 [4] [µM] | MIC MH 10720 [5] | MIC [6] [µM] | MIC MH 6374 [7] | MIC PM 10775 [8] | MIC MH 13065 [9] | MIC [10] [µM] | MIC [2] [µM] | MIC [7] [µM] | MIC [9] [µM] | MIC [5] [µM] | MIC [1] [µM] | MIC [3] [µM] |
| --- | --- | --- | --- | --- | --- | --- | --- | --- | --- | --- | --- | --- | --- | --- | --- | --- |
| CC(C)(O)C(NC(=O)c1ccc(C#Cc2ccc(CNCc3cccs3)cc2)cc1)C(=O)NO (stereo not drawn) [Compound 578] | <=0.1 μM | <=0.1 μM | <=0.1 μM | 0.4 (≈ 0.191 µg/mL) | <=0.1 μM | 0.4 (≈ 0.191 µg/mL) | <=0.1 μM | <=0.1 μM | <=0.1 μM | 0.2 (≈ 0.0955 µg/mL) | – | – | – | – | – | – |
| CC(C)(C(NC(=O)c1ccc(C#Cc2ccc(CNCc3ccccc3)cc2)cc1)C(=O)NO)[N+](=O)[O-] (racemic) [Compound 652] | <=0.1 μM | – | <=0.1 μM | 0.8 (≈ 0.4 µg/mL) | <=0.1 μM | 0.8 (≈ 0.4 µg/mL) | – | <=0.1 μM | – | 0.8 (≈ 0.4 µg/mL) | 0.4 (≈ 0.2 µg/mL) | 0.8 (≈ 0.4 µg/mL) | 0.4 (≈ 0.2 µg/mL) | – | – | – |
| C=CCNCc1ccc(C#Cc2ccc(C(=O)NC(C(=O)NO)C(C)(C)S(C)(=O)=O)cc2)cc1 (stereo not drawn) [C. 602] | <=0.1 μM | <=0.1 μM | <=0.1 μM | 1.6 (≈ 0.774 µg/mL) | <=0.1 μM | 1.6 (≈ 0.774 µg/mL) | – | <=0.1 μM | – | 0.8 (≈ 0.387 µg/mL) | – | 0.8 (≈ 0.387 µg/mL) | 0.8 (≈ 0.387 µg/mL) | – | – | – |
| C[C@@H](O)[C@H](NC(=O)c1ccc(C#Cc2ccc(CNCC#N)cc2)cc1)C(=O)NO [C. 360] | <=0.1 μM | <=0.1 μM | <=0.1 μM | 0.8 (≈ 0.325 µg/mL) | – | 0.4 (≈ 0.163 µg/mL) | – | <=0.1 μM | – | 0.8 (≈ 0.325 µg/mL) | – | 0.4 (≈ 0.163 µg/mL) | 0.4 (≈ 0.163 µg/mL) | 0.2 (≈ 0.0813 µg/mL) | – | – |
| CC(C)(O)C(NC(=O)c1ccc(C#Cc2ccc(CNCc3ccccn3)cc2)cc1)C(=O)NO (stereo not drawn) [Compound 576] | <=0.1 μM | <=0.1 μM | <=0.1 μM | 1.6 (≈ 0.756 µg/mL) | <=0.1 μM | 0.8 (≈ 0.378 µg/mL) | – | <=0.1 μM | – | 0.8 (≈ 0.378 µg/mL) | – | 0.4 (≈ 0.189 µg/mL) | 0.8 (≈ 0.378 µg/mL) | – | – | – |
| CSC(C)(C)C(NC(=O)c1ccc(C#Cc2ccc(CNC3CC3)cc2)cc1)C(=O)NO (stereo not drawn) [Compound 581] | <=0.1 μM | <=0.1 μM | <=0.1 μM | 1.6 (≈ 0.723 µg/mL) | <=0.1 μM | 0.4 (≈ 0.181 µg/mL) | – | <=0.1 μM | – | 0.4 (≈ 0.181 µg/mL) | – | 0.8 (≈ 0.361 µg/mL) | 0.4 (≈ 0.181 µg/mL) | – | – | – |
| COc1ccc(CNCc2ccc(C#Cc3ccc(C(=O)NC(C(=O)NO)C(C)(C)O)cc3)cc2)cc1 (stereo not drawn) [Compound 570] | <=0.1 μM | – | <=0.1 μM | 1.6 (≈ 0.803 µg/mL) | <=0.1 μM | 0.8 (≈ 0.401 µg/mL) | – | <=0.1 μM | – | 0.8 (≈ 0.401 µg/mL) | 0.4 (≈ 0.201 µg/mL) | 0.8 (≈ 0.401 µg/mL) | 0.8 (≈ 0.401 µg/mL) | – | – | – |
| CSC(C)(C)[C@H](NC(=O)c1ccc(C#Cc2ccc(CNCc3nccs3)cc2)cc1)C(=O)NO [Compound 600] | <=0.1 μM | – | <=0.1 μM | 1.6 (≈ 0.814 µg/mL) | – | 0.8 (≈ 0.407 µg/mL) | – | <=0.1 μM | – | 0.8 (≈ 0.407 µg/mL) | 0.4 (≈ 0.203 µg/mL) | 1.6 (≈ 0.814 µg/mL) | 0.8 (≈ 0.407 µg/mL) | 0.2 (≈ 0.102 µg/mL) | – | – |
| CC(C)([C@@H](NC(=O)c1ccc(C#Cc2ccc(CNCc3nccs3)cc2)cc1)C(=O)NO)S(C)(=O)=O [C. 620] | <=0.1 μM | <=0.1 μM | <=0.1 μM | 0.4 (≈ 0.216 µg/mL) | <=0.1 μM | 0.2 (≈ 0.108 µg/mL) | – | <=0.1 μM | – | 0.2 (≈ 0.108 µg/mL) | – | 0.2 (≈ 0.108 µg/mL) | 0.2 (≈ 0.108 µg/mL) | – | – | – |
| C[C@@H](O)[C@H](NC(=O)c1ccc(C#Cc2ccc(CN3CCOCC3)s2)cc1)C(=O)NO [C. 192] | <=0.1 μM | – | <=0.1 μM | 1.6 (≈ 0.71 µg/mL) | – | 0.8 (≈ 0.355 µg/mL) | – | <=0.1 μM | – | 0.8 (≈ 0.355 µg/mL) | 0.2 (≈ 0.0887 µg/mL) | 0.8 (≈ 0.355 µg/mL) | 0.8 (≈ 0.355 µg/mL) | 0.2 (≈ 0.0887 µg/mL) | – | – |
| CCC(C)C(NC(=O)c1ccc(C#Cc2ccc(CNCc3ccco3)cc2)cc1)C(=O)NO (stereo not drawn) [Compound 301] | – | – | – | 1.6 (≈ 0.735 µg/mL) | <=0.1 μM | 0.4 (≈ 0.184 µg/mL) | – | <=0.1 μM | – | 0.8 (≈ 0.368 µg/mL) | 0.8 (≈ 0.368 µg/mL) | 0.8 (≈ 0.368 µg/mL) | 0.8 (≈ 0.368 µg/mL) | – | 0.4 (≈ 0.184 µg/mL) | 0.4 (≈ 0.184 µg/mL) |
| CC(C)C(NC(=O)c1ccc(C#Cc2ccc(CNCc3ccco3)cc2)cc1)C(=O)NO (stereo not drawn) [Compound 290] | – | – | <=0.1 μM | 0.4 (≈ 0.178 µg/mL) | <=0.1 μM | 0.2 (≈ 0.0891 µg/mL) | – | <=0.1 μM | – | 0.4 (≈ 0.178 µg/mL) | 0.4 (≈ 0.178 µg/mL) | 0.4 (≈ 0.178 µg/mL) | 0.4 (≈ 0.178 µg/mL) | – | 0.2 (≈ 0.0891 µg/mL) | – |
| C[C@@H](O)[C@H](NC(=O)c1ccc(C#Cc2ccc(CN3CCc4ccccc4C3)s2)cc1)C(=O)NO [Compound 194] | <=0.1 μM | <=0.1 μM | <=0.1 μM | 0.8 (≈ 0.392 µg/mL) | <=0.1 μM | 0.2 (≈ 0.0979 µg/mL) | – | <=0.1 μM | – | 0.8 (≈ 0.392 µg/mL) | – | 0.8 (≈ 0.392 µg/mL) | 0.4 (≈ 0.196 µg/mL) | – | – | – |
| C[C@@H](O)[C@H](NC(=O)c1ccc(C#Cc2ccc(CNCc3cccnc3)cc2)cc1)C(=O)NO [Compound 256] | <=0.1 μM | <=0.1 μM | <=0.1 μM | 1.6 (≈ 0.734 µg/mL) | <=0.1 μM | 0.4 (≈ 0.183 µg/mL) | – | <=0.1 μM | – | 0.8 (≈ 0.367 µg/mL) | – | 0.4 (≈ 0.183 µg/mL) | 0.8 (≈ 0.367 µg/mL) | – | – | – |
| CSC(C)(C)C(NC(=O)c1ccc(C#Cc2ccc(CNCc3ccccc3)cc2)cc1)C(=O)NO (stereo not drawn) [Compound 585] | – | – | – | 1.6 (≈ 0.803 µg/mL) | – | 0.8 (≈ 0.401 µg/mL) | – | <=0.1 μM | – | 0.8 (≈ 0.401 µg/mL) | 0.4 (≈ 0.201 µg/mL) | 1.6 (≈ 0.803 µg/mL) | 0.8 (≈ 0.401 µg/mL) | 0.2 (≈ 0.1 µg/mL) | 0.4 (≈ 0.201 µg/mL) | 0.2 (≈ 0.1 µg/mL) |
